According to patent US4590202A, “N-(2-imidazolidinylidene)-5H-dibenzo[a,d]cyclohepten-5-amine compounds and α2 -adrenergic antagonistic uses thereof” (Merck & Co., Inc., priority 1984, dated 1986):

Legend:
[1] = system: α2 -adrenoreceptor; experiment: neurogenic contractions of rat vas deferens (α2-adrenergic activity); conditions: electrically stimulated rat vas deferens
Protocol: (§1) In such determination, vas deferens of rat is suspended under tension between two platinum electrodes of an organ bath containing Tyrode's solution and contractile responses to electrical stimulation recorded. Agonist drug is added and EC50 values determined. After wash out, an antagonist drug is added and after a suitable period of contact with the tissue, the EC50 values of agonist in presence of antagonist are similarly determined.
(§2) These properties indicate suitability for use as an antidepressant.

[2] = system: vascular smooth muscle; experiment: inhibition of calcium induced contraction of vascular smooth muscle; design: species or system male Sprague-Dawley rats; conditions: 10^-7 M; contraction induced by 1.0 mM calcium chloride in depolarized rat vascular smooth muscle
Protocol: The property may be observed in a test in which segments of vascular smooth muscle obtained from male Sprague-Dawley rats are suspended in physiological salt solution in a tissue bath instrumented for recording contractions. After the tissue has been equilibrated, washed in calcium-free physiological salt solution and then depolarized, 1.0 mM calcium chloride is re-added to induce contraction. After the contraction has reached a plateau, tissues are washed and a test compound or vehicle is added to determine the effect on a second contraction achieved by the above cyclic protocol. From measuring the initial contraction as well as the second contraction in the presence of the test compound, the extent of inhibition may be calculated.

[3] = system: α1 -adrenoreceptor; experiment: neurogenic contractions of rat vas deferens (α1-adrenergic activity); conditions: electrically stimulated rat vas deferens
Protocol: as §1, §2

Row | Structure (SMILES) | antagonism of the inhibition of contractions produced by clonidine ([1]; agonist clonidine) | inhibition at 0.1 µM [2] [%] | antagonism of the response to methoxamine ([3]; agonist methoxamine) | effect on neurogenic contractions of the rat vas deferens when given alone ([3]; compound alone) | effect on neurogenic contractions of the rat vas deferens ([1]; antagonism by rauwolscine)
1 | Brc1ccc2c(c1)C(N=C1NCCN1)c1ccccc1C=C2.I (stereo not drawn) [N-(2-Imidazolidinylidene)-3-bromo-5H-dibenzo[a,d]cyclohepten-5-amine Hydroiodide] | antagonized the inhibition of contractions produced by clonidine | 40 | antagonized the response to methoxamine with a similar order of potency | enhanced the neurogenic contractions of the rat vas deferens | 
2 | C1=Cc2ccccc2C(N=C2NCCN2)c2ccccc21.I [N-(2-Imidazolidinylidene)-5H-dibenzo[a,d]cyclohepten-5-amine Hydroiodide] |  | 56 |  |  | inhibit neurogenic contractions of the rat vas deferens which was antagonized by rauwolscine
